Key:
[1] = biological target: T1, androgen receptor (Homo sapiens, UniProt P10275); test: Assay for binding affinity to androgen receptor ([3H]methyltrienolone radioligand, cell cytosol); settings: 1 nM [3H]methyltrienolone, 24 hours at 4° C., Table 5
T1 sequence (P10275 1-920 T878A): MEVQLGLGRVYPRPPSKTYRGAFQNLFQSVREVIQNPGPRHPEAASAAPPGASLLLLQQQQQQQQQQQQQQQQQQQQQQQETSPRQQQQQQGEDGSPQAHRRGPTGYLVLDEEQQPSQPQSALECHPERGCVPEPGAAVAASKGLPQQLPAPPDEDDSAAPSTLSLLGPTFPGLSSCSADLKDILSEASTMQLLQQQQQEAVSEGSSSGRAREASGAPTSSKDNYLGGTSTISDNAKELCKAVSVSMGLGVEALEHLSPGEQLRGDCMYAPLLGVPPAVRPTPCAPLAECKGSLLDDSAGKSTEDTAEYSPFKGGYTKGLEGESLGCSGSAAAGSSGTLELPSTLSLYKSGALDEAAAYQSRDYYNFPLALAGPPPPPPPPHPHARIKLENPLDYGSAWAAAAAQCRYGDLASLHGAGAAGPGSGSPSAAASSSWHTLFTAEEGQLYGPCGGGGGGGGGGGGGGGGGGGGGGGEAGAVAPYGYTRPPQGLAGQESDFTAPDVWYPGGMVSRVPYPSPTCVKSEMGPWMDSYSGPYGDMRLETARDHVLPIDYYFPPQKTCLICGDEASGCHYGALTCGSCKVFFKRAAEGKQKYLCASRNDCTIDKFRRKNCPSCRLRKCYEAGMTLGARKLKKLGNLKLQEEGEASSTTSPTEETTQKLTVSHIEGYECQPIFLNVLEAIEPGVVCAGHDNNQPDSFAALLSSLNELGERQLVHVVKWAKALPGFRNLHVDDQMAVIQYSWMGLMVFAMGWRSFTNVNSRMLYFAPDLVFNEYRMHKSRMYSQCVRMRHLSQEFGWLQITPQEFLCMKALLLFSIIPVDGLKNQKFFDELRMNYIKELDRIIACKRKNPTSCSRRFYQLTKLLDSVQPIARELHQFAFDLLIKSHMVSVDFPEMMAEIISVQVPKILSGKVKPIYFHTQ
Experimental: Fractions of cell cytosol ([…] cell/point) were incubated for 24 hours at 4° C. with 1 nM [^3H]methyltrienolone in the absence or presence of the test compound in a buffer containing 25 mM Hepes-Tris (pH 7.4), 1 mM EDTA, 10 mM Na2MoO4, 2 mM DTT, 5 μM triamcinolone acetonide, and 10% glycerol. Nonspecific binding was determined in the presence of 1 μM testosterone. Following incubation, the samples were filtered rapidly under vacuum through glass fiber filters (GF/B, Packard) presoaked with 0.3% PEI and rinsed several times with ice-cold 50 mM Tris-HCl using a 96-sample cell harvester (Unifilter, Packard). The filters were dried then counted for radioactivity in a scintillation counter (Topcount, Packard) using a scintillation cocktail (Microscint 0, Packard). The results are expressed as a percent inhibition of the control radioligand specific binding. The standard reference compound is testosterone, which is tested in each experiment at several concentrations to obtain a competition curve from which its IC50 is calculated.

[2] = test system: T-Rex 293 cell line SC3 cells having increased expression of androgen receptor protein due to exposure to doxycycline; test: Cellular growth inhibition, T-Rex 293 SC3 cells with doxycycline (androgen receptor induced), CellTiter-Glo; assay type: cell-based; settings: 72 h, T-Rex 293 SC3 cells with 10 ng/mL doxycycline (increased androgen receptor expression)
Method in brief: (§1)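 With DMSO (0.5%) vehicle as negative control, compounds treated SC3 cells for 72 h in medium containing charcoal-dextran FBS ± doxycycline. This T-Rex 293 clone expresses transfected wild-type AR on induction. Readout: CellTiter-Glo 2.0; GI50 by nonlinear regression.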

[3] = test system: T-Rex 293 cell line SC3 cells lacking increased expression of androgen receptor protein; test: Cellular growth inhibition, T-Rex 293 SC3 cells without doxycycline, CellTiter-Glo; assay type: cell-based; settings: 72 h, T-Rex 293 SC3 cells not exposed to doxycycline, CellTiter-Glo 2.0
Method in brief: as §1

[4] = biological target: T2, BRD4-BD1 (Homo sapiens, UniProt O60885); test: bromoKdELECT assay for binding affinity to BRD4-BD1; settings: Table 6
T2 construct: made in house; host or cells: T7 phage grown in an E. coli host derived from BL21
Experimental: Compounds were tested using a bromoKdELECT assay. T7 phage strains displaying bromodomains were grown in parallel in 24-well blocks in an E. coli host derived from the BL21 strain. E. coli were grown to log-phase and infected with T7 phage from a frozen stock (multiplicity of infection=0.4) and incubated with shaking at 32° C. until lysis (90-150 minutes). The lysates were centrifuged (5,000×g) and filtered (0.2 μm) to remove cell debris. Streptavidin-coated magnetic beads were treated with biotinylated small molecule or acetylated peptide ligands for 30 minutes at room temperature to generate affinity resins for bromodomain assays. The liganded beads were blocked with excess biotin and washed with blocking buffer (SeaBlock (Pierce), 1% BSA, 0.05% Tween 20, 1 mM DTT) to remove unbound ligand and to reduce nonspecific phage binding. Binding reactions were assembled by combining bromodomains, liganded affinity beads, and test compounds in 1× binding buffer (17% SeaBlock, 0.33×PBS, 0.04% Tween 20, 0.02% BSA, 0.004% Sodium azide, 7.4 mM DTT). Test compounds were prepared as 1000× stocks in 100% DMSO. Kds were determined using an 11-point 3-fold compound dilution series with one DMSO control point. All compounds for Kd measurements are distributed by acoustic transfer (non-contact dispensing) in 100% DMSO. The compounds were then diluted directly into the assays such that the final concentration of DMSO was 0.09%. All reactions performed in polypropylene 384-well plates. Each was a final volume of 0.02 ml. The assay plates were incubated at room temperature with shaking for 1 hour and the affinity beads were washed with wash buffer (1×PBS, 0.05% Tween 20). The beads were then resuspended in elution buffer (1×PBS, 0.05% Tween […] non-biotinylated affinity ligand) and incubated at room temperature with shaking for 30 minutes. The bromodomain concentration in the eluates was measured by qPCR.

[5] = test system: T47D cells; test: Cellular growth inhibition assay for T47D cells, CellTiter-Glo; assay type: cell-based, human; settings: Homo sapiens, T47D, 72 h, 72 hours treatment, CellTiter-Glo 2.0 cell viability
Method in brief: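 Cells are plated at 3000/well and allowed 24 h before treatment. Test compound in medium containing 0.5% DMSO is then added, with DMSO-only wells as negative control, and plates are incubated 72 h at 37 °C. ATP luminescence (CellTiter-Glo 2.0) is then fitted to four parameters to derive GI50.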

[6] = test system: VCaP cells; test: Cellular growth inhibition assay for VCaP cells, CellTiter-Glo; assay type: cell-based, human; settings: Homo sapiens, VCaP, 72 h, 72 hours treatment, CellTiter-Glo 2.0
Method in brief: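 GI50 values come from four-parameter curve fits of luminescence data normalized to a zero baseline. Compound, in medium with 0.5% DMSO, was added one day after plating and left for 72 h before CellTiter-Glo 2.0 addition.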

Structure (SMILES)	Kd [1] [nM]	GI50 [2] [nM]	GI50 [3] [nM]	Kd [4] [nM]	GI50 [5] [nM]	GI50 [6] [nM]
Cc1sc2c(c1C)C(c1ccc(Cl)cc1)=N[C@@H](CC(=O)NCCOCCOCCOC1CCCN(c3ncc(C(=O)N[C@H]4C(C)(C)[C@H](Oc5ccc(C#N)c(Cl)c5)C4(C)C)cn3)C1)c1nnc(C)n1-2 (stereo partly shown) [Compound I-15]	< 50	< 500	1500 to 3000	500 to 2500		
CC[C@@H]1N=C(c2ccc(N3CC(CC4CCN(c5cnc(C(=O)N[C@H]6C(C)(C)[C@H](Oc7ccc(C#N)c(Cl)c7)C6(C)C)cn5)CC4)C3)cc2)c2c(sc(C)c2C)-n2c(C)nnc21 [Compound I-594]		> 3000	> 3000		1500 to 3000	> 3000
Cc1sc2c(c1C)C(c1ccc(-c3ccsc3OC3CCN(c4ncc(C(=O)N[C@H]5C(C)(C)[C@H](Oc6ccc(C#N)c(Cl)c6)C5(C)C)cn4)CC3)cc1)=N[C@@H](Cc1ncco1)c1nnc(C)n1-2 [Compound I-444]		< 500	> 3000		> 3000	< 500
Cc1sc2c(c1C)C(c1ccc(C#CC3CC4(C3)CN(c3ncc(C(=O)N[C@H]5C(C)(C)[C@H](Oc6ccc(C#N)c(Cl)c6)C5(C)C)cn3)C4)cc1)=N[C@@H](Cc1ncco1)c1nnc(C)n1-2 [Compound I-59]		< 500	< 500		< 500	< 500
Cc1sc2c(c1C)C(c1ccc(CC[C@H]3C[C@@]4(CCCN(c5ncc(C(=O)N[C@H]6C(C)(C)[C@H](Oc7ccc(C#N)c(Cl)c7)C6(C)C)cn5)C4)C3)cc1)=N[C@@H](Cc1ncco1)c1nnc(C)n1-2 [Compound I-240]		> 3000	> 3000		> 3000	> 3000
Cc1sc2c(c1C)C(c1ccc(OC3CC4(CCN(c5ncc(C(=O)N[C@H]6C(C)(C)[C@H](Oc7ccc(C#N)c(Cl)c7)C6(C)C)cn5)CC4)C3)cc1)=N[C@@H](C)c1nnc(C)n1-2 [Compound I-391]		< 500	> 3000		500 to 1500	1500 to 3000
Cc1sc2c(c1C)C(c1ccc(N3CC(CC4CCN(c5ccc(C(=O)N[C@H]6C(C)(C)[C@H](Oc7ccc(C#N)c(Cl)c7)C6(C)C)nc5)CC4)C3)cc1)=N[C@@H](C)c1nnc(C)n1-2 [Compound I-449]		> 3000	> 3000		500 to 1500	> 3000
Cc1sc2c(c1C)C(c1ccc(NCCC3CCCN(c4ncc(C(=O)N[C@H]5C(C)(C)[C@H](Oc6ccc(C#N)c(Cl)c6)C5(C)C)cn4)C3)cc1)=N[C@@H](Cc1ncco1)c1nnc(C)n1-2 (stereo partly shown) [Compound I-652]		< 500	< 500		< 500	< 500
Cc1sc2c(c1C)C(c1ccc(O[C@H]3CCC4(CCCN(c5ncc(C(=O)N[C@H]6C(C)(C)[C@H](Oc7ccc(C#N)c(Cl)c7)C6(C)C)cn5)C4)C3)cc1)=N[C@@H](Cc1ncco1)c1nnc(C)n1-2 (stereo partly shown) [Compound I-200]		< 500	500 to 1500		500 to 1500	< 500
Cc1sc2c(c1C)C(c1ccc(NC3CCCN(c4ncc(C(=O)N[C@H]5C(C)(C)[C@H](Oc6ccc(C#N)c(Cl)c6)C5(C)C)cn4)CC3)cc1)=NC(Cc1ncco1)c1nnc(C)n1-2 (stereo partly shown) [Compound I-640]		< 500	500 to 1500		< 500	< 500
Cc1sc2c(c1C)C(c1ccc(Cl)cc1)=N[C@@H](CC(=O)NCCN1CCN(CC3CCN(c4ncc(C(=O)N[C@H]5C(C)(C)[C@H](Oc6ccc(C#N)c(Cl)c6)C5(C)C)cn4)CC3)CC1)c1nnc(C)n1-2 [Compound I-35, N-((1r,3r)-3-(3-chloro-4-cyanophenoxy)-2,2,4,4-tetramethylcyclobutyl)-2-(4-((4-(2-(2-((S)-4-(4-chlorophenyl)-2,3,9-trimethyl-6H-thieno[3,2-f][1,2,4]triazolo[4,3-a][1,4]diazepin-6-yl)acetamido)ethyl)piperazin-1-yl)methyl)piperidin-1-yl)pyrimidine-5-carboxamide]		500 to 1500	500 to 1500		< 500	500 to 1500
Cc1sc2c(c1C)C(c1ccc(N3CC[C@@H](CNc4ncc(C(=O)N[C@H]5C(C)(C)[C@H](Oc6ccc(C#N)c(Cl)c6)C5(C)C)cn4)C3)cc1)=NC(Cc1ncco1)c1nnc(C)n1-2 (stereo partly shown) [Compound I-648]		< 500	< 500		< 500	< 500
CCNC(=O)C[C@@H]1N=C(c2ccc(CCN(C)c3ncc(C(=O)N[C@H]4C(C)(C)[C@H](Oc5ccc(C#N)c(Cl)c5)C4(C)C)cn3)cc2)c2c(sc(C)c2C)-n2c(C)nnc21 [Compound I-103]		< 500	500 to 1500		500 to 1500	500 to 1500

Reference: patent publication US20260062422A1 (Halda Therapeutics OpCo, Inc., priority 2022, published 2026)
